Test results published in US8476064B2, “Inhibition assay method and device for detection of antibiotics” (Charm Sciences, Inc., priority 2006, dated 2013).

Columns and labels:
[1] = system: B.st. spores; test: Single service kidney swab microbial growth inhibition test, culture of Example 1, with or without beta-lactam receptor; assay type: cell-based, Bacillus (Geobacillus) Stearothermophilus; conditions: for test result With receptor: with 1 U receptor
Experimental: A Bromocresol purple (BCP)/Tris Solution was prepared by combining 25 mL of a Trizma Base solution (TBS), the solution including 2.5 grams Trizma Base in 100 mL of reverse osmosis/deionized water (RO/DI Water), with 100 milligrams of BCP and mixing well. The media was prepared by dissolving 5 grams glucose and 1 gram Mueller Hinton Broth (Mueller Hinton broth includes, in purified filtered water, 2 grams per liter (g/L) beef extract, 17.5 g/L casein hydrolysate acid and 1.5 g/L starch, pH 7.3 at 25 degrees C) into 100 mL RO/DI Water. Then a 0.01 mg/mL solution of trimethoprim in RO/DI Water was prepared and 1.2 mL was added to the media. Next 20 mL of BCP/Tris (sterile filtered through 0.45 micron filter) was added to the media.
Agar was prepared by combining 0.3 grams Difco Bacto-Agar (Item #0140-01), 0.225 NaCl and 17.485 RO/DI Water. The mixture was heated to 95° C. and then removed from the heat and allowed to cool to 75° C. Next 6 mL of media (prepared as described above with BCP/Tris) was added to the agar and mixed for 5 minutes. The mixture was cooled to 57° C. and 1 mL spore solution (concentration of 1 billion cfu/mL) was added and mixed together for 5 minutes. 0.200 mL was dispensed into the bottom of a vial 4.
The dispensed vial 4 was prepared as described in example 1. An extractant was prepared by adding 4.8 grams of 47.2% Trizma Base and 52.5% Potassium Phosphate Monobasic to 1000 mL RO/DI Water (pH should be 7.5+/−0.10). The extractant was sealed within the niblet 5 and the niblet was added to the vial 4. The vial 4 was heat sealed with foil.
The single service kidney swab procedure was run by first making a 3 inch incision into kidney. The swab 1 was then withdrawn from the test unit, the test unit in the form of a POCKETSWAB, by gently pulling and twisting the handle 2 out of the test unit body 7. The swab 1 was then inserted into the incision of the kidney and allowed to sit for 15 minutes to allow full absorption of liquid into the swab 1. The swab 1 was reinserted by gently pushing down and twisting to engage the threads 6 and screwing the handle down slowly about halfway. The swab tip 3 punctured the seals 12, 13 & 14 immersing the swab tip 3 into the extractant within the niblet 5 where it sat for 2 minutes. The swab 1 was then screwed down all the way. After shaking and tapping the vial 4 to get residual liquid into the bottom of the vial 4 and in contact with the culture 15, we placed the vial 4 into a heat block set at 67° C. and incubated for 2.5 hours (if urine is tested instead of kidney, incubate for 4 hours).
Culture is prepared as in Example 1. Prior to dispensing 200 microliters into the vial 4, antibiotic binder is prepared, in this example an antibiotic binder from the cell wall of B.st., also known as receptor. Varying amounts of inhibitory receptor units are mixed into the culture. Receptor is defined as protein removed from cellular membrane of B.st. A receptor unit (1 U) is the amount of receptor that will, in the test, reverse the culture growth inhibition of 12.5 ppb of penicillin G.
Results in Table 1 are from tests using the culture described in Example 1 and with the addition of receptor added into rinse buffer (rinse buffer composition is 4.8 grams of 47.2% Trizma Base and 52.5% Potassium Phosphate Monobasic to 1000 mL RO/DI Water) at 0, 0.3 units (U), 1.0 U, 2.0 U, 5.0 Upper test. Sample contained the following amounts of penicillin G: 0, 5 parts per billion (ppb), 10 ppb, 12.5 ppb, 25 ppb and 50 ppb. As shown, 1.0 U was able to reverse the result of a 12.5 ppb penicillin G sample. Results are either positive (+) or negative (−).
Results are either positive (+), negative (−) or borderline between positive and negative (+/−). Abbreviations are penicillin G (PenG); sulfamethazine (SMZ); sulfadimethoxine (SDM); tylosin (TY); gentamicin (G); oxytetracycline (OT). […]

[2] = system: B.st. spores; test: Antibiotic detection test in spiked milk, borate/succinate culture of Example 6 (Table 4); assay type: cell-based, Bacillus (Geobacillus) Stearothermophilus; parameters: key to Color 1 / Color 2: Color result 1 and 2 is a negative result; Color result 1 and 2 is a negative result; 3 is a borderline result; 4 and 5 is a positive result; 4 and 5 is a positive result; conditions: for % Pos (Color 2) / Color 2: after 16 hours at room temperature; for % Pos (Color 1) / Color 1: immediately after test completion
Experimental: BCP/Borate/Succinate Solution was prepared by adding 3.8 grams of Borate and 6 grams Succinate to 100 mL of reverse osmosis/deionized water (RO/DI Water) in 125 mL flask. 50 milligrams of BCP was added to a 50 mL conical tube and 5 mL of Borate/Succinate solution was added to the 50 milligrams BCP and mixed.
To prepare media 5 grams glucose and 1 gram Mueller Hinton Broth was dissolved in 100 mL RO/DI Water. 1.2 mL of a 0.01 mg/mL solution of trimethoprim in RO/DI Water was prepared and added to the media. A 20 mL of BCP/Borate/Succinate was added to the media and the media was sterile filtered through a 0.45 micron filter and then cooled to 4 degrees C.
Agar was prepared by combining 0.3 grams Difco Bacto-Agar (Item #0140-01), 0.225 NaCl and 17.485 RO/DI Water. The mixture was heated to 95° C. and then removed from the heat and allowed to cool to 75° C. Next 6 mL of media (prepared as described above with BCP/Tris) was added to the agar and mixed for 5 minutes. The mixture was cooled to 57° C. and 1 mL spore solution (concentration of 1 billion cfu/mL) was added and mixed together for 5 minutes. 0.200 mL was dispensed into the bottom of each of the vials.
In test operation 200 microliters of various milk sample, spiked with known concentrations of antibiotics, were pipetted into test vials and incubated for the prescribed time (in this test 2 hours 10 minutes) and prescribed temperature (64 degrees C.+/−2 degrees C.). Incubation was in the Charm I Inctronic incubator. Results were recorded immediately after test completion (Color 1) and after being left at room temperature for 16 hours (Color 2). Results listed are in parts per billion (ppb). 4 samples were run at each concentrations except for raw negative milk (16 samples) and 3 ppb pen G (2 samples) and amoxicillin (2 samples). Abbreviations are penicillin G (PenG); sulfamethazine (SMZ); sulfadimethoxine (SDM); tylosin (TY); gentamicin (G); oxytetracycline (OT); pirlimycin (Pirl); amoxicillin (Amox); ampicillin (Amp); cloxacillin (Clox); ceftiofur sodium (Ceft); cephaprin (Ceph); tilmicosin (Til); sulfadoxine (SDN); neomycin (Neo). Color result 1 and 2 is a negative result, 3 is a borderline result and 4 and 5 is a positive result.

CC1(C)S[C@@H]2[C@H](NC(=O)Cc3ccccc3)C(=O)N2[C@H]1C(=O)O [PenG, penicillin G] was tested, and the test result ([1]; 12.5 ppb penicillin G, Control - no receptor) was “+”, the test result ([1]; 12.5 ppb penicillin G, Receptor added to buffer) was “−” and the test result ([1]; 12.5 ppb penicillin G, Receptor added to culture surface) was “−”. For the same molecule, the test result ([1]; 12.5 ppb penicillin G, Receptor mixed in culture) was “−”, the test result ([1]; 50 ppb penicillin G, Control - no receptor) was “+” and the test result ([1]; 50 ppb penicillin G, Receptor added dried on swab) was “+”. For the same molecule, the test result ([1]; 50 ppb penicillin G, Receptor added to buffer) was “+”, the test result ([1]; 50 ppb penicillin G, Receptor added to culture surface) was “+” and the “test sensitivity to penicillin G” value ([1]; beta-lactam receptor 0.3 units to 5.0 units added to the top of the culture) was “reduced by varying amounts”. The “test result w/out receptor” value ([1]; drug 12.5 ppb) was “+”, the “test result With receptor” value ([1]; drug 12.5 ppb) was “−” and the “test result w/out receptor” value ([1]; drug 25 ppb) was “+”. The “test result With receptor” value ([1]; drug 25 ppb) was “+”, the test result ([1]; penicillin G 5 ppb in sample, receptor 0 U per test in rinse buffer) was “+” and the test result ([1]; penicillin G 5 ppb in sample, receptor 0.3 U per test in rinse buffer) was “−”. The test result ([1]; penicillin G 5 ppb in sample, receptor 1.0 U per test in rinse buffer) was “−”, the test result ([1]; penicillin G 5 ppb in sample, receptor 2.0 U per test in rinse buffer) was “−” and the test result ([1]; penicillin G 5 ppb in sample, receptor 5.0 U per test in rinse buffer) was “−”. The test result ([1]; penicillin G 10 ppb in sample, receptor 0 U per test in rinse buffer) was “+”, the test result ([1]; penicillin G 10 ppb in sample, receptor 0.3 U per test in rinse buffer) was “−” and the test result ([1]; penicillin G 10 ppb in sample, receptor 1.0 U per test in rinse buffer) was “−”. The test result ([1]; penicillin G 10 ppb in sample, receptor 2.0 U per test in rinse buffer) was “−”, the test result ([1]; penicillin G 10 ppb in sample, receptor 5.0 U per test in rinse buffer) was “−” and the test result ([1]; penicillin G 12.5 ppb in sample, receptor 0 U per test in rinse buffer) was “+”. The test result ([1]; penicillin G 12.5 ppb in sample, receptor 0.3 U per test in rinse buffer) was “+”, the test result ([1]; penicillin G 12.5 ppb in sample, receptor 1.0 U per test in rinse buffer) was “−” and the test result ([1]; penicillin G 12.5 ppb in sample, receptor 2.0 U per test in rinse buffer) was “−”. For the same molecule, the test result ([1]; penicillin G 12.5 ppb in sample, receptor 5.0 U per test in rinse buffer) was “−”, the test result ([1]; penicillin G 25 ppb in sample, receptor 0 U per test in rinse buffer) was “+” and the test result ([1]; penicillin G 25 ppb in sample, receptor 0.3 U per test in rinse buffer) was “+”. The test result ([1]; penicillin G 25 ppb in sample, receptor 1.0 U per test in rinse buffer) was “+”, the test result ([1]; penicillin G 25 ppb in sample, receptor 2.0 U per test in rinse buffer) was “+” and the test result ([1]; penicillin G 25 ppb in sample, receptor 5.0 U per test in rinse buffer) was “+”. The test result ([1]; penicillin G 50 ppb in sample, receptor 0 U per test in rinse buffer) was “+”, the test result ([1]; penicillin G 50 ppb in sample, receptor 0.3 U per test in rinse buffer) was “+” and the test result ([1]; penicillin G 50 ppb in sample, receptor 1.0 U per test in rinse buffer) was “+”. The test result ([1]; penicillin G 50 ppb in sample, receptor 2.0 U per test in rinse buffer) was “+”, the test result ([1]; penicillin G 50 ppb in sample, receptor 5.0 U per test in rinse buffer) was “+” and the “% Pos (Color 2)” value ([2]; milk spiked at 3 ppb) was 100%. For the same molecule, the “Color 2” value ([2]; milk spiked at 3 ppb) was 5, the “% Pos (Color 1)” value ([2]; milk spiked at 3 ppb) was 100% and the “Color 1” value ([2]; milk spiked at 3 ppb) was 5. The “% Pos (Color 2)” value ([2]; milk spiked at 4 ppb) was 100%, the “Color 2” value ([2]; milk spiked at 4 ppb) was 5 and the “% Pos (Color 1)” value ([2]; milk spiked at 4 ppb) was 100%. The “Color 1” value ([2]; milk spiked at 4 ppb) was 5.
